Measurements from ChEMBL document CHEMBL1123631, “Synthesis and gastrointestinal pharmacology of the 4-fluoro analogue of enisoprost” (1987).

Legend:
Assay type in all cases: functional
[1] = tested on: Canis familiaris; experiment: Gastric antisecretory activity was determined in food stimulated Pavlov dogs by intrapouch administration ig; Value ranges from 6.2-15.3; conditions: Canis lupus familiaris
[2] = organism: Rattus norvegicus; experiment: Mucosal protective activity in rats was measured as minimum effective dose (MED); ig; conditions: po, read-out: MED
[3] = tested on: Canis familiaris; experiment: Gastric antisecretory activity was determined in food stimulated Pavlov dogs by intrapouch administration ig; Value ranges from 0.017-0.032; conditions: Canis lupus familiaris

Compound	ED50 [1]	minimal effective dose [2]	ED50 [3]
CCCCC(C)(O)C/C=C/[C@H]1[C@H](O)CC(=O)[C@@H]1CC/C=C(/F)CCC(=O)OC (some centres undefined)	9.7 µg/kg	50 µg/kg	–
CCCCC(C)(O)C/C=C/[C@H]1[C@H](O)CC(=O)[C@@H]1CC/C=C\CCC(=O)OC (some centres undefined) [ENISOPROST]	–	1 µg/kg	0.023 µg/kg
